Laboratory results from patent US20250041278A1, “TLR8 AGONIST FOR MODULATING IMMUNE RESPONSE” (The Children's Medical Center Corporation, priority 2021, published 2025).

What was measured:
Type in all cases: cell-based
human (h)TLR8 = biological target: T1, human (h)TLR8 (Homo sapiens, UniProt Q9NR97); assay: PRR ligand screening (InvivoGen) in reporter cell lines; conditions: HEK reporter cells; % activity vs positive control
T1 construct: host or cells: HEK-293 reporter cells
T1 sequence (Q9NR97 27-1041): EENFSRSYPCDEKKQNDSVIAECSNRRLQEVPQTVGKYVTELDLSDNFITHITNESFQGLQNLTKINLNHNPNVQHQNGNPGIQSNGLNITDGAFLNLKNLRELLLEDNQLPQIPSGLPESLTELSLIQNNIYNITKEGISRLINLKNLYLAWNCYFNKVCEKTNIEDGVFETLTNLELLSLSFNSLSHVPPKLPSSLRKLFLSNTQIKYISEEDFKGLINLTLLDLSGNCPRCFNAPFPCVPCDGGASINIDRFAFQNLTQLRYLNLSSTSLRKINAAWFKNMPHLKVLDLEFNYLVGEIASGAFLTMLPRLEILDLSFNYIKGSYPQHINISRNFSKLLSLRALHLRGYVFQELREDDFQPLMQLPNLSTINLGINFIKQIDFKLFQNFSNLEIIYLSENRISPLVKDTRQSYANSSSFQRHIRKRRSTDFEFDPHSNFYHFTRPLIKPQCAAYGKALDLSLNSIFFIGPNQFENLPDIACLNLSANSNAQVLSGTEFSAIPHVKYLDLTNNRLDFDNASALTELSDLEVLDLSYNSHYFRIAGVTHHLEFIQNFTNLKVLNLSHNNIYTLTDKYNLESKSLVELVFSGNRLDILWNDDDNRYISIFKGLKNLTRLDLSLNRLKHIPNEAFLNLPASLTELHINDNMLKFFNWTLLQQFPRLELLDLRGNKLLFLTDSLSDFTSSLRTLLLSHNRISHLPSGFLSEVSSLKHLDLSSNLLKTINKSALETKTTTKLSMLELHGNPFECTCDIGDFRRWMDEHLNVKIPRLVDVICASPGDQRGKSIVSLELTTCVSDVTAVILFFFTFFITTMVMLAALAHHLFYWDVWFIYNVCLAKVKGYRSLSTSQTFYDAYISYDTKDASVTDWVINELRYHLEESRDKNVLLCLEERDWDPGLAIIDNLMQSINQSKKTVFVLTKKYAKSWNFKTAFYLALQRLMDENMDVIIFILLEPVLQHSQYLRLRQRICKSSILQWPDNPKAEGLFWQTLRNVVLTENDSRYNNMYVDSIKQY
Experimental: (§1) FIGS. 3A-3E. PVP-179 is a TLR8 agonist. FIG. 3A: PVP-179 was sent to InvivoGen for PRR ligand screening service. Various cells lines were utilized to screen for PVP-179-induced ([…]) activation of TLRs, NOD1/2, RIG-I/MDA-5, Dectin-1 or Mincle receptor. The heat-map depicts percentage activity compared to the positive control for each receptor. FIG. 3B: PVP-179 induced activity (% activity compared to the positive control: CL075 at 1 μg/mL) in HEK-293 cells specifically expressing hTLR8. In brief, these cells have an NF-κB/AP-1-inducible secreted embryonic alkaline phosphatase (SEAP) reporter gene which allows monitoring of signaling via TLR8. After incubation for 16-24 hours, supernatant harvested from the cells is mixed with media containing SEAP-substrate and the optical density (OD) is measured at 650 nm using a spectrophotometer. FIG. 3C: As in FIG. 3B, HEK cells specifically expressing hTLR2, hTLR7, or hTLR8, in addition to the HEK-Null cell line carrying only the reporter gene, were stimulated with the indicated concentrations of PVP-179. […] PVP-179 activity is expressed as a percentage of NF-κB induced in the cells stimulated with TNF (positive control for each cell line). […] The supernatants were harvested after 20-24 hours and SEAP production (to assess NF-κB activity) was measured using QUANTIBlue assay. […]

human adult PBMCs = assay: TNF ELISA in human adult PBMCs after TLR8 inhibitor CUCPT-9a; conditions: CUCPT-9a pre-incubation
Experimental: FIG. 3E: As in FIG. 3D, PBMCs isolated from human adult donors were cultured with 10% autologous plasma and incubated with CUCPT-9a. After inhibition, cells were stimulated with DMSO, TL8-506 (TLR8 specific agonist), LPS (TLR4 agonist; negative control) and different concentrations of PVP-179. Supernatants were harvested after 20-24 hours and analyzed for production of TNF via ELISA. N=6 donors.
Next a TLR8-specific pharmacological inhibitor (CUCPT-9a), which stabilizes the TLR8 dimer in its resting state, was used to inhibit activity downstream of TLR8.

hTLR2 = biological target: T2, hTLR2 (Homo sapiens, UniProt O60603); assay: HEK hTLR2 NF-κB SEAP reporter assay; conditions: even at higher concentrations
T2 construct: expressed in transfected cells; host or cells: HEK reporter cells
T2 sequence (O60603 21-784): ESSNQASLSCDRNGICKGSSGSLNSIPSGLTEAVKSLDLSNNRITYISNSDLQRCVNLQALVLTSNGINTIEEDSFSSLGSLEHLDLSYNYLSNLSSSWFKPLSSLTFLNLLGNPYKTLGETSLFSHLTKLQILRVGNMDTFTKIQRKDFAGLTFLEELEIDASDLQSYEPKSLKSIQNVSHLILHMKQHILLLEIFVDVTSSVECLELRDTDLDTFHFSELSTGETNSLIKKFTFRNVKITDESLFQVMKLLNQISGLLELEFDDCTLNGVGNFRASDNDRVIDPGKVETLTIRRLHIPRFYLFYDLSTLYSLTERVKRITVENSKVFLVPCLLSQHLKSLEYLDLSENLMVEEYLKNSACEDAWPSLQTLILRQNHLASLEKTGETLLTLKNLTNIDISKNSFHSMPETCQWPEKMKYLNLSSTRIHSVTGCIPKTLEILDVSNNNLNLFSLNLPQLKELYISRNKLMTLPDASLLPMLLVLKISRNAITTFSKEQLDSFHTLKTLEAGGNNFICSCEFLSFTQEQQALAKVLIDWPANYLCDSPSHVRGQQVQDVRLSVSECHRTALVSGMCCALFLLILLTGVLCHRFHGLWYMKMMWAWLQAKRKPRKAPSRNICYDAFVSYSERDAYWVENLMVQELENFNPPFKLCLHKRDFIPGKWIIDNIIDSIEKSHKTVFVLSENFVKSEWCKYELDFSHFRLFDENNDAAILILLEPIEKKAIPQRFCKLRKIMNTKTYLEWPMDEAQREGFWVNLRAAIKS
Experimental: as §1

[1] = test system: human adult and elderly PBMCs; assay: 14-multiplex cytokine assay in PBMC supernatants
From the text: FIGS. 1A-1D. Discovery of PVP-179 in a human PBMC high-throughput screen. FIG. 1A: A graphical overview depicting screen approach. From a high-throughput screen previously conducted, 310 molecules were identified to be activators of either THP-1 cells (monocyte cell line) or primary human adult peripheral blood mononuclear cells (PBMCs). These 310 molecules were assembled into a stimulation plate and then applied to the PBMCs of 4 elderly donors (cultured with 10% autologous plasma). […] Z scores were averaged across all four elderly donors. The Z score and chemical structure for PVP-179 are indicated. FIG. 1C: Human adult or elderly PBMCs (cultured with 10% autologous plasma) were stimulated with PVP-179 in a two-point concentration titration manner. After 18 hours of incubation, supernatant was processed for ELISA-based measurement of TNF production. N=4 donors. FIG. 1D: As in FIG. 1C, the supernatants were collected, and 14 cytokines were measured by multiplex assay. […] N=4 donors each.
The activity of PVP-179 was confirmed in a 96-well format in both human adult and elderly PBMCs.

CCCCn1c(/N=C/c2nc3ccccc3n2C)nc2ccccc21 [PVP-179]
activity among all TLRs and other receptors tested (human (h)TLR8): maximal activity toward human (h)TLR8 | PVP-179 induced TNF production after CUCPT-9a (human adult PBMCs): completely blocked | NF-κB activity in HEK cells expressing hTLR2 (hTLR2): no activity was detected | innate immune response (cytokine responses), elder vs younger adult leukocytes ([1]; 14-multiplex assay): greater innate immune response in elder leukocytes than in younger adult controls | proinflammatory cytokine and chemokine induction (TNF, IL-6, IL-8, IL-10, IL-12 p40, IL-12 p70, IP-10, CCL5, CCL3, MCP1, GM-CSF, IFN-γ, IFN-α2, IL1-β) ([1]; similarly to R848 at 25 μM): titration-dependent concentration of proinflammatory cytokines
